Assay results as given in patent US20050272688A1, “Combined treatment with gemcitabine and an epidermal growth factor receptor kinase inhibitor” (priority 2004, published 2005).
“And” between values parts separate entries of the source, which are not always exact repeats. Equal values may be shown once. Read-outs that look alike come from different tables or passages of the source.

Columns and labels:
NSCLC xenograft tumor = experiment: Immunohistochemistry of xenograft tumors (Ki-67, TUNEL apoptosis, CD31 microvascular density); format: in vivo, athymic nude mice
Experimental: Sections for immunohistochemistry were cut at 5μ.
To block non-specific tissue-binding sites, sections were blocked by 10% normal serum from the species in which the secondary antibody was raised. Sections were incubated for 20 minutes at room temperature in serum prepared in Ultra-V (Lab Vision).

[1] = Single-dose pharmacokinetics of erlotinib in non-tumor bearing mice; format: in vivo, female nu/nu athymic mice
Experimental: (§1) For single-dose pharmacokinetics (PK), blood samples from three mice per time point were collected by cardiac puncture at 5, 15, 30, 60 minutes and 2, 4, 8, 16, 24 hours post-dose. For chronically treated animals, blood samples from two or three mice per time point were collected via the retro-orbital sinus at 1 and 6 hours. Collection tubes contained ethylene diamine tetra-acetic acid (EDTA) as anticoagulant. Samples were stored at −70° C. […] PK parameters were estimated by non-compartmental analysis of the composite data, using the PK evaluation programme WinNonlin PRO® version 3.1 (Pharsight Inc).
The doses refer to the hydrochloride salt with an active drug (free base) content of 91.5%. […] Three animals per time point were evaluated for PK data (FIG. 4).

H460a NSCLC xenograft = experiment: Tumor growth inhibition in H460a NSCLC xenograft model; format: in vivo, athymic nude mice
Experimental: (§2) Mice were implanted with H460a NSCLC cells. […] Tumor size was measured 3 times per week. Values are means, n=10.
as §2
(§3) H460a cells (provided by Dr Jack Roth, Md., Anderson) were grown in Dulbecco's Modified Eagle Media (DMEM) supplemented with 10% Foetal Bovine Serum (FBS). A549 cells (American Type Culture Collection [Manassas, Va.] were grown in Roswell Park Memorial Institute medium (RPMI) 1640+10% FBS. The cell concentrations for implant were 1×10^7 cells/0.2 mL for H460a and 7.5×10^6 cells/0.2 mL for A549.
(§4) Cells were suspended in phosphate-buffered saline, and implanted subcutaneously in the right flank of each mouse. Once palpable tumours were established, animals were randomised so that all groups had similar starting mean tumour volumes of 100-150 mm^3. Tumour measurements and mouse weights were taken three times per week. Animals were individually monitored throughout the experiment.
(§5) All groups were treated daily for 3 weeks.
(§6) Gemcitabine was given intraperitoneally (i.p.) using a 3 mL syringe and 26-gauge needle. All groups were treated every 3 days for 3 weeks (a total of six injections).
(§7) Weight loss was calculated as percent change in mean group body weight, using the formula: ((W−W0)/W0)×100 • where ‘W’ represents mean body weight of the treated group at a particular day, and ‘W0’ represents mean body weight of the same group at start of treatment. Maximum weight loss was also calculated using the above formula, giving the maximum percentage of body weight lost at any time in the entire experiment for a particular group. Treatment efficacy was assessed by tumor growth inhibition. Tumour volumes of treated groups were given as percentages of tumor volumes of the control groups (% T/C), using the formula: 100×((T−T0)/(C−C0)) • where ‘T’ represents mean tumor volume of a treated group on a specific day during the experiment, ‘T0’ represented mean tumor volume of the same group on the first day of treatment, C represents mean tumor volume of a control group on a particular day of the experiment, and C0 represents mean tumor volume of the same group on the first day of treatment.
(§8) Tumor growth inhibition was calculated using the formula: [127] 100% T/C
(§9) Tumor volume (mm^3) was calculated using the ellipsoid formula: (D×(d^2))/2 • where ‘D’ represents the large diameter of the tumor, and ‘d’ represents the small diameter. In some cases, tumor regression and/or percentage change in tumor volume was calculated using the formula: ((T−T0)/T0)×100 • where ‘T’ represents mean tumor volume of the treated group at a particular day, and ‘T0’ represents mean tumor volume of the same treated group at the start of treatment.

A549 NSCLC xenograft = format: in vivo
Experimental: Mice were implanted with A549 NSCLC cells. […] Tumor size was measured 3 times per week. Values are means, n=10.
as §3, §4, §5, §6, §7, §8, §9

[2] = Necropsy, haematology, clinical chemistry and histology of treated mice; format: in vivo, athymic nude mice
Text: At necropsy, skin samples were fixed in 10% buffered formalin, embedded in paraffin, sectioned at 5 μand stained with haematoxylin and eosin.
Five mice per treatment from all remaining groups were given a full necropsy at the end of the study. Whole blood was also collected from these mice for haematology and clinical chemistry.

[3] = Chronic-dose plasma and tumor concentrations of erlotinib in tumor-bearing mice; format: in vivo, nu/nu athymic mice; conditions: for concentration at 1 h / concentration at 6 h: nu/nu athymic, mouse; for concentration at 1 h: 1 hour post dose; for concentration at 6 h: 6 hours post dose
Experimental: On day 28 post tumor implant, blood (from the retro-orbital sinus) and tumor samples were collected at 1 and 6 hours post dosing. […] Values are means±SD, n=3.
as §1

in vivo = conditions: for MTD at 14 days: female, mouse, in vivo
Experimental: FIG. 6: Maximum tolerated dose assessment in non-tumour bearing athymic nude mice treated for 14 days (n=5).
Female, athymic, nu/nu-nuBR nude mice (Charles River Labs, Wilmington, USA) of around 10-12 weeks and weighing 23-25 g were used. The health of the mice was assessed daily by observation and analysis of blood samples taken from sentinel animals on the shared shelf racks. All animals were allowed to acclimatise and recover from shipping-related stress for 1 week.

NSCLC = conditions: single agent, stage 1V patients; cited from earlier work
[4] = plasma, oral 6.3-150.0 mg/kg daily, highest value, read-out: Plasma concentration
[5] = H460a tumor, oral 150 mg/kg, read-out: Mean tumor concentration

## C#Cc1cccc(Nc2ncnc3cc(OCCOC)c(OCCOC)cc23)c1 [erlotinib, [6,7-bis(2-methoxyethoxy)-4-quinazolin-4-yl]-(3-ethynylphenyl) amine]
NSCLC xenograft tumor; erlotinib 100 mg/kg, both NSCLC xenograft tumor models
  Ki-67 proliferative index: mild decrease
NSCLC xenograft tumor; erlotinib monotherapy
  Angiogenesis as microvascular density (MVD), CD31 staining: no clear effect
NSCLC xenograft tumor; erlotinib monotherapy, treated xenografts
  Frequency of apoptosis in tumor cells: no significant difference
[1]; 20 vs 100 mg/kg single dose
  Dose proportionality of exposure (AUC): dose-proportional
[1]; female, nu/nu athymic, mouse, plasma, po, single 20 and 100 mg/kg by gavage, read-out: Average mean residence time
  MRT: ~7 h
[1]; female, nu/nu athymic, mouse, plasma, po, single 20 and 100 mg/kg by gavage, read-out: Mean apparent terminal half-life (converted)
  half-life: ~4 h
[1]; female, nu/nu athymic, mouse, po, single 20 mg/kg by gavage, plasma
  AUC(0-t): 33.5 µg·h/mL
[1]; female, nu/nu athymic, mouse, po, single 100 mg/kg by gavage, plasma
  AUC(0-t): ~196 µg·h/mL
[1]; single 20 mg/kg by gavage
  Mean maximum plasma concentration: ~9,100 ng/mL
[1]; single 100 mg/kg by gavage
  Mean maximum plasma concentration: approximately 24,000 ng/mL
[1]; single 20 and 100 mg/kg by gavage
  Time of maximum plasma concentration: 0.5-1.0 hours post dose
H460a NSCLC xenograft; dose response study, 6.25 mg/kg oral daily, day 28
  Tumor growth inhibition: 28%
H460a NSCLC xenograft; dose response study, 12.5 mg/kg oral daily, day 28
  Tumor growth inhibition: 36%
H460a NSCLC xenograft; dose response study, 25 mg/kg oral daily, day 28
  Tumor growth inhibition: 46%
H460a NSCLC xenograft; dose response study, 100 mg/kg oral daily, day 28 post tumor implantation
  Tumor growth inhibition: 61%
H460a NSCLC xenograft; dose response study, all dose groups
  Tumor regressions: no partial or complete regressions
A549 NSCLC xenograft; erlotinib 25 mg/kg alone, day 47
  Tumor growth inhibition: 48%
A549 NSCLC xenograft; erlotinib 100 mg/kg alone
  Extent of partial regression: 16% and 7%
  Number of partial regressions: two
A549 NSCLC xenograft; erlotinib 100 mg/kg alone, day 47 post tumor implantation (treatment day 19)
  Tumor growth inhibition: 87%
[2]; erlotinib 100 mg/kg/day for 21 days
  Skin lesion histology: diffuse, mild to moderate epidermal acanthosis, epidermal hyperkeratosis, focal escharosis, and infiltration of mostly acute inflammatory cells in the dermis
[2]; erlotinib monotherapy
  Changes in haematology or clinical chemistry parameters: no changes
  Treatment-related macroscopic changes in the skin: substantial reddening and crusting of the skin of the muzzle
[3]; ascending oral doses 6.3-150.0 mg/kg, tumor-bearing mice
  Dose proportionality of exposure: more than dose-proportional
[3]; [4]
  concentration at 1 h: ≤ 16700 ng/mL
  concentration at 6 h: ≤ 8870 ng/mL
[3]; [5]
  concentration at 1 h: 4800 ng/g
  concentration at 6 h: 3090 ng/g
In vivo; 150 mg/kg for 3 weeks, previous efficacy studies (unpublished)
  Tolerability: well tolerated
In vivo; 200 mg/kg group
  Toxicity outcome: marked weight loss
In vivo; 400 mg/kg group
  Toxicity outcome: One mouse in the 400 mg/kg group died
In vivo; oral daily, 14 days
  MTD at 14 days: 100 mg/kg

## Nc1ccn([C@@H]2O[C@H](CO)[C@@H](O)C2(F)F)c(=O)n1 [gemcitabine]
H460a NSCLC xenograft; combination study, gemcitabine 30 mg/kg i.p. every 3 days alone
  Tumor growth inhibition: 64%
H460a NSCLC xenograft; combination study, gemcitabine 120 mg/kg i.p. every 3 days alone
  Tumor growth inhibition: 93%
A549 NSCLC xenograft; gemcitabine 30 mg/kg alone, day 47
  Tumor growth inhibition: 42%
A549 NSCLC xenograft; gemcitabine 120 mg/kg alone
  Extent of partial regression: 5%
  Number of partial regressions: one
A549 NSCLC xenograft; gemcitabine 120 mg/kg alone, day 47
  Tumor growth inhibition: 75%
In vivo; every 3 days
  MTD at 14 days: 120 mg/kg

## CC(=O)O[C@H]1C(=O)[C@@]2(C)[C@H]([C@H](OC(=O)c3ccccc3)[C@]3(O)C[C@H](OC(=O)[C@H](O)[C@@H](NC(=O)c4ccccc4)c4ccccc4)C(C)=C1C3(C)C)[C@]1(OC(C)=O)CO[C@@H]1C[C@@H]2O [paclitaxel]
NSCLC
  Response rate: 21% to 24%
